Measured values published in patent US20170173002A1, “Compositions and Methods for Treating an Infection” (CMPD LICENSING, LLC, priority 2015, published 2017).

Assays:
[1] = test system: Aspergillus flavus; experiment: Expected efficacy of antifungal agents; conditions: expected efficacy against Aspergillus flavus
[2] = test system: Aspergillus fumigatus; experiment: Expected efficacy of antifungal agents; conditions: expected efficacy against Aspergillus fumigatus
[3] = test system: Aspergillus terreus; experiment: Expected efficacy of antifungal agents; conditions: expected efficacy against Aspergillus terreus
[4] = test system: Paracoccidioides brasiliensis; experiment: Expected efficacy of antifungal agents; conditions: expected efficacy against Paracoccidioides brasiliensis
[5] = test system: Blastomyces dermatitidis; experiment: Expected efficacy of antifungal agents; conditions: expected efficacy against Blastomyces dermatitidis
[6] = test system: Aspergillus niger; experiment: Expected efficacy of antifungal agents; conditions: expected efficacy against Aspergillus niger
[7] = test system: Leishmania donovani; experiment: Expected efficacy of antifungal agents; conditions: expected efficacy against Leishmania donovani
[8] = test system: Histoplasma capsulatum; conditions: expected efficacy against Histoplasma capsulatum
[9] = test system: Coccidioides immitis; conditions: expected efficacy against Coccidioides immitis
[10] = test system: Leishmania infantum; experiment: Expected efficacy of antifungal agents; conditions: expected efficacy against Leishmania infantum
[11] = test system: Candida species; experiment: Expected efficacy of antifungal agents; conditions: expected efficacy against Candida species
[12] = test system: Cryptococcus neoformans; experiment: Expected efficacy of antifungal agents; conditions: expected efficacy against Cryptococcus neoformans
[13] = test system: gram-positive staphylococci and streptococci; conditions: background description of the drug; cited from earlier work
[14] = test system: Escherichia coli; experiment: Expected efficacy of antibiotic agents; conditions: expected efficacy against Escherichia coli
[15] = test system: Viridans group streptococci; experiment: Expected efficacy of antibiotic agents; conditions: expected efficacy against Viridans group streptococci
[16] = test system: Shigella flexneri; experiment: Expected efficacy of antibiotic agents; conditions: expected efficacy against Shigella flexneri
[17] = test system: Klebsiella (Calymmatobacterium) granulomatis; experiment: Expected efficacy of antibiotic agents; conditions: expected efficacy against Klebsiella (Calymmatobacterium) granulomatis
[18] = test system: Chlamydia pneumoniae; experiment: Expected efficacy of antibiotic agents; conditions: expected efficacy against Chlamydia pneumoniae
[19] = test system: Enterobacter aerogenes; experiment: Expected efficacy of antibiotic agents; conditions: expected efficacy against Enterobacter aerogenes
[20] = test system: Haemophilus influenzae; experiment: Expected efficacy of antibiotic agents; conditions: expected efficacy against Haemophilus influenzae
[21] = test system: Shigella sonnei; experiment: Expected efficacy of antibiotic agents; conditions: expected efficacy against Shigella sonnei
[22] = test system: Francisella tularensis
[23] = test system: Neisseria gonorrhoeae; experiment: Expected efficacy of antibiotic agents; conditions: expected efficacy against Neisseria gonorrhoeae
[24] = test system: Mycoplasma pneumoniae; experiment: Expected efficacy of antibiotic agents; conditions: expected efficacy against Mycoplasma pneumoniae
[25] = test system: Campylobacter jejuni; experiment: Expected efficacy of antibiotic agents; conditions: expected efficacy against Campylobacter jejuni
[26] = test system: Clostridium difficile; experiment: Expected efficacy of antibiotic agents; conditions: expected efficacy against Clostridium difficile
[27] = test system: Citrobacter diversus; experiment: Expected efficacy of antibiotic agents; conditions: expected efficacy against Citrobacter diversus
[28] = test system: Haemophilus parainfluenzae; experiment: Expected efficacy of antibiotic agents; conditions: expected efficacy against Haemophilus parainfluenzae
[29] = test system: Neisseria meningitidis; experiment: Expected efficacy of antibiotic agents; conditions: expected efficacy against Neisseria meningitidis
[30] = test system: Bartonella bacilliformis; experiment: Expected efficacy of antibiotic agents; conditions: expected efficacy against Bartonella bacilliformis
[31] = test system: Providencia rettgeri; experiment: Expected efficacy of antibiotic agents; conditions: expected efficacy against Providencia rettgeri
[32] = test system: Yersinia pestis
[33] = test system: Vibrio cholerae; experiment: Expected efficacy of antibiotic agents; conditions: expected efficacy against Vibrio cholerae
[34] = test system: Enterococcus faecalis; experiment: Expected efficacy of antibiotic agents; conditions: expected efficacy against Enterococcus faecalis
[35] = test system: Corynebacterium jeikeium; experiment: Expected efficacy of antibiotic agents; conditions: expected efficacy against Corynebacterium jeikeium
[36] = test system: Providencia stuartii; experiment: Expected efficacy of antibiotic agents; conditions: expected efficacy against Providencia stuartii
[37] = test system: Acinetobacter lwoffii; experiment: Expected efficacy of antibiotic agents; conditions: expected efficacy against Acinetobacter lwoffii
[38] = test system: Rickettsiae
[39] = test system: Legionella pneumophila
[40] = test system: Diphtheroids; experiment: Expected efficacy of antibiotic agents; conditions: expected efficacy against Diphtheroids
[41] = test system: Klebsiella pneumoniae; experiment: Expected efficacy of antibiotic agents; conditions: expected efficacy against Klebsiella pneumoniae
[42] = test system: Enterococcus faecium; experiment: Expected efficacy of antibiotic agents; conditions: expected efficacy against Enterococcus faecium
[43] = test system: Morganella morganii; experiment: Expected efficacy of antibiotic agents; conditions: expected efficacy against Morganella morganii
[44] = test system: Peptostreptococcus; experiment: Expected efficacy of antibiotic agents; conditions: expected efficacy against Peptostreptococcus
[45] = test system: Serratia marcescens; experiment: Expected efficacy of antibiotic agents; conditions: expected efficacy against Serratia marcescens
[46] = test system: Staphylococcus epidermidis; experiment: Expected efficacy of antibiotic agents; conditions: expected efficacy against Staphylococcus epidermidis
[47] = test system: Corynebacterium urealyticum; experiment: Expected efficacy of antibiotic agents; conditions: expected efficacy against Corynebacterium urealyticum
[48] = test system: Pseudomonas aeruginosa; experiment: Expected efficacy of antibiotic agents; conditions: expected efficacy against Pseudomonas aeruginosa
[49] = test system: Klebsiella oxytoca; experiment: Expected efficacy of antibiotic agents; conditions: expected efficacy against Klebsiella oxytoca
[50] = test system: Enterobacter sakazakii; experiment: Expected efficacy of antibiotic agents; conditions: expected efficacy against Enterobacter sakazakii
[51] = test system: Chlamydia psittaci
[52] = test system: Methicillin resistant staph aureus (MRSA); experiment: Expected efficacy of antibiotic agents; conditions: expected efficacy against Methicillin resistant staph aureus (MRSA)
[53] = test system: Acinetobacter baumannii; experiment: Expected efficacy of antibiotic agents; conditions: expected efficacy against Acinetobacter baumannii
[54] = test system: Shigella dysenteriae; experiment: Expected efficacy of antibiotic agents; conditions: expected efficacy against Shigella dysenteriae
[55] = test system: Proteus mirabilis; experiment: Expected efficacy of antibiotic agents; conditions: expected efficacy against Proteus mirabilis
[56] = test system: Chlamydia trachomatis; experiment: Expected efficacy of antibiotic agents; conditions: expected efficacy against Chlamydia trachomatis
[57] = test system: Streptococcus pneumoniae; experiment: Expected efficacy of antibiotic agents; conditions: expected efficacy against Streptococcus pneumoniae
[58] = test system: Haemophilus ducreyi; experiment: Expected efficacy of antibiotic agents; conditions: expected efficacy against Haemophilus ducreyi
[59] = test system: Brucella species
[60] = test system: Shigella boydii; experiment: Expected efficacy of antibiotic agents; conditions: expected efficacy against Shigella boydii
[61] = test system: Pseudomonas fluorescens; experiment: Expected efficacy of antibiotic agents; conditions: expected efficacy against Pseudomonas fluorescens
[62] = test system: Acinetobacter calcoaceticus; experiment: Expected efficacy of antibiotic agents; conditions: expected efficacy against Acinetobacter calcoaceticus
[63] = test system: Proteus vulgaris; experiment: Expected efficacy of antibiotic agents; conditions: expected efficacy against Proteus vulgaris
[64] = test system: Citrobacter freundii; experiment: Expected efficacy of antibiotic agents; conditions: expected efficacy against Citrobacter freundii
[65] = test system: Streptococcus pyogenes; experiment: Expected efficacy of antibiotic agents; conditions: expected efficacy against Streptococcus pyogenes
[66] = test system: Clostridium perfringens
[67] = test system: Staphylococcus aureus (MSSA); experiment: Expected efficacy of antibiotic agents; conditions: expected efficacy against Staphylococcus aureus (MSSA)
[68] = test system: Salmonella typhi; experiment: Expected efficacy of antibiotic agents; conditions: expected efficacy against Salmonella typhi
[69] = test system: Moraxella catarrhalis; experiment: Expected efficacy of antibiotic agents; conditions: expected efficacy against Moraxella catarrhalis
[70] = test system: Enterobacter cloacae; experiment: Expected efficacy of antibiotic agents; conditions: expected efficacy against Enterobacter cloacae
[71] = test system: Bordetella pertussis; experiment: Expected efficacy of antibiotic agents; conditions: expected efficacy against Bordetella pertussis
[72] = test system: Bacteroides fragilis; experiment: Expected efficacy of antibiotic agents; conditions: expected efficacy against Bacteroides fragilis
[73] = test system: Streptococcus agalactiae; experiment: Expected efficacy of antibiotic agents; conditions: expected efficacy against Streptococcus agalactiae
[74] = test system: Scedosporium apiospermum; experiment: Expected efficacy of antifungal agents; conditions: expected efficacy against Scedosporium apiospermum
[75] = test system: Fusarium species; experiment: Expected efficacy of antifungal agents; conditions: expected efficacy against Fusarium species

C[C@@H]1[C@H](O)[C@@H](C)/C=C/C=C/C=C/C=C/C=C/C=C/C=C/[C@H](O[C@@H]2O[C@H](C)[C@@H](O)[C@H](N)[C@@H]2O)C[C@@H]2O[C@](O)(C[C@@H](O)C[C@@H](O)[C@H](O)CC[C@@H](O)C[C@@H](O)CC(=O)O[C@H]1C)C[C@H](O)[C@H]2C(=O)O [Amphotericin, amphotericin b]
Efficacy [1]: yes | Efficacy [2]: yes | Efficacy [3]: yes | Efficacy [4]: yes | Efficacy [5]: yes | Efficacy [6]: yes | Efficacy [7]: yes | Efficacy [8]: yes | Efficacy [9]: yes | Efficacy [10]: yes | Efficacy [11]: yes | Efficacy [12]: yes

OC(Cn1cncn1)(Cn1cncn1)c1ccc(F)cc1F [Fluconazole]
Efficacy [1]: yes | Efficacy [2]: yes | Efficacy [5]: yes | Efficacy [8]: yes | Efficacy [9]: yes | Efficacy [11]: yes | Efficacy [12]: yes

C/C(=C\C(=O)OCCCCCCCCC(=O)O)C[C@@H]1OC[C@H](C[C@@H]2O[C@H]2[C@@H](C)[C@@H](C)O)[C@@H](O)C1O (stereo partly drawn) [Mupirocin]
activity against gram-positive staphylococci and streptococci [13]: excellent activity

CN[C@H](CC(C)C)C(=O)N[C@H]1C(=O)N[C@@H](CC(N)=O)C(=O)N[C@H]2C(=O)N[C@H]3C(=O)N[C@H](C(=O)N[C@H](C(=O)O)c4cc(O)cc(O)c4-c4cc3ccc4O)[C@H](O)c3ccc(c(Cl)c3)Oc3cc2cc(c3O[C@@H]2O[C@H](CO)[C@@H](O)[C@H](O)[C@H]2O[C@H]2C[C@](C)(N)[C@H](O)[C@H](C)O2)Oc2ccc(cc2Cl)[C@H]1O [Vancomycin]
Efficacy [14]: no | Efficacy [15]: yes | Efficacy [16]: no | Efficacy [17]: no | Efficacy [18]: no | Efficacy [19]: no | Efficacy [20]: no | Efficacy [21]: no | Efficacy [22]: no | Efficacy [23]: no | Efficacy [24]: no | Efficacy [25]: no | Efficacy [26]: yes | Efficacy [27]: no | Efficacy [28]: no | Efficacy [29]: no | Efficacy [30]: no | Efficacy [31]: no | Efficacy [32]: no | Efficacy [33]: no | Efficacy [34]: yes | Efficacy [35]: yes | Efficacy [36]: no | Efficacy [37]: no | Efficacy [38]: no | Efficacy [39]: no | Efficacy [40]: yes | Efficacy [41]: no | Efficacy [42]: yes, not VRE | Efficacy [43]: no | Efficacy [44]: yes | Efficacy [45]: no | Efficacy [46]: yes | Efficacy [47]: yes | Efficacy [48]: no | Efficacy [49]: no | Efficacy [50]: no | Efficacy [51]: no | Efficacy [52]: yes | Efficacy [53]: no | Efficacy [54]: no | Efficacy [55]: no | Efficacy [56]: no | Efficacy [57]: yes | Efficacy [58]: no | Efficacy [59]: no | Efficacy [60]: no | Efficacy [61]: no | Efficacy [62]: no | Efficacy [63]: no | Efficacy [64]: no | Efficacy [65]: yes | Efficacy [66]: no | Efficacy [67]: yes | Efficacy [68]: no | Efficacy [69]: no | Efficacy [70]: no | Efficacy [71]: no | Efficacy [72]: no | Efficacy [73]: yes

C[C@@H](c1ncncc1F)[C@](O)(Cn1cncn1)c1ccc(F)cc1F [Voriconazole, voriconazole]
Efficacy [1]: yes | Efficacy [2]: yes | Efficacy [3]: yes | Efficacy [6]: yes | Efficacy [74]: yes | Efficacy [11]: yes | Efficacy [75]: yes
